Patent publication US8884007B2, “Hexenone compounds and medical use thereof” (Institute of Pharmacology and Toxicology Medical Sciences …, priority 2010, dated 2014)

Legend:
[1] = system: TG-induced cardiomyocytes apoptosis; test: Protection against TG-induced cardiomyocytes apoptosis (MTT); type: cell-based, Wistar sucking mice
Experimental: The isolation and culture of cardiomyocytes were performed by referring to the differential adhesion method (Kreider, A. Messing, H. Doan, S. U. Kim, R. P. Lisak and D. E. Pleasure, Enrichment of Schwann cell cultures from neonatal rat sciatic nerve by differential adhesion, Brain Res 2 (1981), pp. 433-444). Wistar sucking mice newborn within 24 h were used, sterilized at skin of ventrum with iodine tincture and ethanol, subjected to thoracotomy using scissors at subxiphoid median line with a deviation to left, heart was taken out after slant thoracotomy and placed in PBS precooled with ice; the heart was softly blown and beaten with 0.01M PBS to remove blood cells and other tissues, then cut into pieces with 0.5 mm^3 size, washed with 0.01M PBS repeatedly for 2-3 times; the pieces were placed in conical flask, added with 4 ml of 0.125% pancretin, 1 ml of 0.1% collagenase II (final concentrations separately being 0.1% and 0.02%), shaken in 37° C. water bath for 10 min, the supernatant was discarded; then 4 ml of 0.125% pancretin and 1 ml of 0.1% collagenase II again, shaken in 37° C. water bath for digestion for 10 min, the supernatant was sucked and transferred to a centrifuge tube, and the supernatant was added with DMEM containing 10% FBS to terminate digestion; the step of shaking and digestion in water bath was repeated for 3-4 times, until the tissue pieces were completely digested; the collected cell suspension was centrifuged under 1000 rpm for 10 min, the supernatant was removed, then a culture medium was added for resuspension; the resuspended cells were inoculated in a cell culture flask, placed in CO2 incubator at 37° C. for incubation for 1.5 h, then the culture medium was sucked out, countered under microscope, then DMEM culture medium containing 10% FBS was used to adjust cell density, inoculated in an amount of 1×10^4 to a 96-well plate, placed in 5% CO2 incubator at 37° C. for 24 h, then half medium was replaced, a culture medium containing 0.1% Brdu was supplementally added; then the medium was replaced once per 48 h, and primary cardiomyocytes were obtained after 4 days of cultivation.
The isolated primary culture of cardiomyocytes was inoculated in an amount of 10^4 cells per well to a 96-well plate, and the volume of each well was 100 ul (marginal wells were filled with sterile PBS). […] The optical density (OD) value of each well was measured at wavelength of 550 nm by enzyme-linked immunoassay instrument, and each well was repeatedly measured for 5 times and the results were recorded. […]

primary cardiomyocytes = test: Measurement of cell inhibition rate (MTT) on normal primary cardiomyocytes; type: cell-based, Wistar sucking mice
Experimental: The isolation and culture of cardiomyocytes were performed by referring to the differential adhesion method (Kreider, A. Messing, H. Doan, S. U. Kim, R. P. Lisak and D. E. Pleasure, Enrichment of Schwann cell cultures from neonatal rat sciatic nerve by differential adhesion, Brain Res 2 (1981), pp. 433-444). […]
The isolated primary culture of cardiomyocytes was inoculated in an amount of 10^4 cells per well to a 96-well plate, and the volume of each well was 100 ul (marginal wells were filled with sterile PBS). […] The optical density (OD) value of each well was measured at wavelength of 550 nm by enzyme-linked immunoassay instrument, and each well was repeatedly measured for 5 times and the results were recorded.

Structure (SMILES)	Survival rate of cardiomyocytes (%) ([1]; TG intervening group (0.4 uM), TG alone)	inhibition at 100 µM (primary cardiomyocytes; Cardiomyocyte, 100 μM group, MTT, 48 h, normal primary cardiomyocytes, read-out: Inhibitive rate of cardiomyocytes (%))	inhibition at 300 µM (primary cardiomyocytes; Cardiomyocyte, 300 μM group, MTT, 48 h, normal primary cardiomyocytes, read-out: Inhibitive rate of cardiomyocytes (%))	effect on survival rate of normal cardiomyocyte (primary cardiomyocytes; concentration within 300 μM)	Survival rate of cardiomyocytes (%) ([1]; TG (0.4 uM) + compound 0.3 μM group, pretreatment 30 min before inducing apoptosis)	Survival rate of cardiomyocytes (%) ([1]; TG (0.4 uM) + compound 1 μM group, pretreatment 30 min before inducing apoptosis)	Survival rate of cardiomyocytes (%) ([1]; TG (0.4 uM) + compound 10 μM group, pretreatment 30 min before inducing apoptosis)
C/C=C(/C)C(=O)O[C@H]1C(C)=C2[C@H]([C@@H]1OC(=O)CCCCCCC)[C@@](C)(OC(C)=O)C[C@H](OC(=O)CCC)[C@@]1(O)[C@H]2OC(=O)[C@@]1(C)O [TG, thapsigargin, reference compound]	59 ± 1.1%						
O=C(/C=C/c1ccccc1)CC(NC(=S)N1CCOCC1)C(Cl)(Cl)Cl (stereo not shown) [Example 1, (1E)-1-phenyl-5-(1-morpholinylthiocarboxamido)-6,6,6-trichloro-1-ene-3-hexanone]		2.91 ± 1.88%	0.76 ± 0.42%	no effect	76.3 ± 7.6%	83.3 ± 7.1%	92.2 ± 5.6%
